Structures can show the parent of a compound that is named as a salt. Where two headings read alike, the source gives them in different places.
Assays:
[1] = Pharmacokinetic study of 10 major BYQZF components in plasma (UPLC-MS/MS); settings: for MRT last: MRT(0-t); for pharmacokinetics in MPTP + BYQZF group compared with BYQZF without MPTP group: p < 0.05
Procedure: (§1) 6‐week‐old male C57BL/6J mice (20 ± 2 g; n = 6 per group) were orally administered the herbal decoction (BYQZF) at a dose of 5 g crude drug/kg. The administration volume was 10 mL/kg, and the concentration of the drug solution was 0.5 g/mL. Plasma samples were collected on day 14 after 14 consecutive days of drug administration. […] The supernatant samples were collected after centrifugation (5000 rpm, 10 min) and stored at −80°C immediately until analysis.
(§2) Each 100 μL plasma aliquot obtained at predetermined intervals was supplemented with 5 μL of internal standard solution (IS, 1 μg/mL) and 10 μL enzymatic hydrolysis cocktail (β‐glucuronidase/sulfatase mixture: 200 U/2 U enzymatic activity). The mixture underwent vortex mixing followed by 1‐h enzymatic digestion at physiological temperature (37°C). Subsequent protein precipitation was achieved through methanol addition (300 μL) with vigorous shaking. After phase separation by centrifugation (5000 rpm, 5 min), the organic supernatant was carefully decanted and subjected to nitrogen‐stream evaporation until completely dry. The residue was then reconstituted in 100 μL of mobile phase consisting of aqueous 0.1% FA‐ACN (v:v = 95:5) using ultrasonic‐assisted dissolution. Prior to UPLC‐MS/MS analysis, the final solution underwent high‐speed clarification centrifugation (13,000 rpm, 10 min) to remove particulate matter. The drug concentration‐time profiles were constructed, and pharmacokinetic parameters were analyzed using DAS 3.2.8 software.

[2] = mouse, in vivo, po
Procedure: as §1, §2

Nrf2/GPX4 pathway = test system: Nrf2/GPX4 pathway; parameters: method as in PMID 39631720, PMID 27632381; settings: PD models ref 40, 41; cited from earlier work
Nrf2/HO-1 pathway = test system: Nrf2/HO-1 pathway; parameters: method as in PMID 27535021; settings: hydrogen peroxide-induced oxidative stress ref 37; cited from earlier work
SH-SY5Y cells = experiment: Annexin V-PE apoptosis detection (flow cytometry) in MPP+-treated SH-SY5Y cells; assay type: cell-based, human; settings: Control siRNA; 1 mM MPP+ alone or followed by 4 μg/mL BYQZF 48 h; control cells 1.65%
Procedure: The experiment used the human neuroblastoma SH‐SY5Y cell line to construct a stable transfected cell line. Cells were grown in a 1:1 MEM/F12 medium blend with added 15% fetal bovine serum for nutritional support. To avoid bacterial contamination, 500 IU/mL of penicillin and 500 μg/mL of streptomycin were incorporated. Cells were cultured at 37°C with 5% CO2 to maintain a pH of 7.2–7.4. The cell passage ratio was 1:2 to 1:4, and medium was replaced every 48–72 h to maintain the cells in the logarithmic growth phase. Routine testing confirmed that the cells were free from mycoplasma, bacterial, and fungal contamination. For cell freezing, a cryopreservation solution consisting of 60% base medium, 30% FBS, and 10% DMSO was used, and cells were stored in liquid nitrogen for long‐term preservation. The human Nrf2 knockdown plasmid, crafted by GeneChem, was used to transfect SH‐SY5Y cells seeded at a concentration of 100,000 cells per milliliter, utilizing the optimal amount of Lipofectamine 3000 (Invitrogen) in accordance with the protocol. 48 h subsequent to transfection, cells were exposed to 1 mM MPP^+ in the culture environment, and subsequently treated with 4 μg/mL BYQZF for another 48 h.

[3] = parameters: method as in PMID 28163115; settings: cited from earlier work
[4] = male, C57BL/6J, mouse, plasma, po, 5 g/kg, AUC(0-t), plasma, oral BYQZF 5 g crude drug/kg, group BYQZF (without MPTP), n=6
[5] = male, C57BL/6J, mouse, plasma, po, 5 g/kg, AUC(0-t), plasma, oral BYQZF 5 g crude drug/kg, group MPTP+BYQZF (PD model mice), n=6
[6] = male, C57BL/6J, mouse, plasma, po, 5 g/kg, Cmax, plasma, oral BYQZF 5 g crude drug/kg, group BYQZF (without MPTP), n=6
[7] = male, C57BL/6J, mouse, plasma, po, 5 g/kg, Cmax, plasma, oral BYQZF 5 g crude drug/kg, group MPTP+BYQZF (PD model mice), n=6
[8] = male, C57BL/6J, mouse, plasma, po, 5 g/kg, plasma, oral BYQZF 5 g crude drug/kg, group BYQZF (without MPTP), n=6
[9] = male, C57BL/6J, mouse, plasma, po, 5 g/kg, plasma, oral BYQZF 5 g crude drug/kg, group MPTP+BYQZF (PD model mice), n=6
[10] = plasma, oral BYQZF 5 g crude drug/kg, group BYQZF (without MPTP), n=6
[11] = plasma, oral BYQZF 5 g crude drug/kg, group MPTP+BYQZF (PD model mice), n=6

For `O=c1c(O)c(-c2ccccc2)oc2ccccc12` [3-Hydroxyflavone], the AUC(0-t) [1, 4] was 0.401 ± 0.0765 ng·h/mL, the AUC(0-t) [1, 5] was 0.341 ± 0.0517 ng·h/mL and the Cmax [1, 6] was 0.105 ± 0.0146 ng/mL. For the same compound, the Cmax [1, 7] was 0.0291 ± 0.00788 ng/mL, the MRT last [1, 8] was 5.17 ± 3.67 h and the MRT last [1, 9] was 13 ± 1.72 h. The “pharmacokinetics in MPTP + BYQZF group compared with BYQZF without MPTP group” value ([1]; oral BYQZF 5 g crude drug/kg) was “significantly different”.

For `C[C@H]1[C@H]2[C@H](O[C@@H]3O[C@H](CO)[C@@H](O)[C@H](O)[C@H]3O)OC=C(C(=O)O)[C@H]2C[C@@H]1O` [8-Epiloganic acid], the “pharmacokinetics in MPTP + BYQZF group compared with BYQZF without MPTP group” value [2] was “significantly different”.

For `C[C@@H]1O[C@@H](O[C@@H]2[C@@H](O)[C@H](OCCc3ccc(O)c(O)c3)O[C@H](CO)[C@H]2OC(=O)/C=C/c2ccc(O)c(O)c2)[C@H](O)[C@H](O)[C@H]1O` [Acteoside], the Nrf2/GPX4 pathway (Nrf2/GPX4 pathway) is given as “activate”.

For `COc1ccc2cc3[n+](cc2c1OC)CCc1cc2c(cc1-3)OCO2` [Berberine hydrochloride], the Nrf2/HO-1 pathway (Nrf2/HO-1 pathway) is listed as “can activate”.

With `O=c1c(O[C@@H]2O[C@H](CO)[C@H](O)[C@H](O)[C@H]2O)c(-c2ccc(O)c(O)c2)oc2cc(O)cc(O)c12` [Hyperin] the “pharmacokinetics in MPTP + BYQZF group compared with BYQZF without MPTP group” value ([1]; oral BYQZF 5 g crude drug/kg) was “significantly different”, the “AUC(0-t)” value [1, 10] was 0.24678 ± 0.01186 ng·h/mL and the Cmax [1, 10] was 0.03885 ± 0.01016 ng/mL. The “MRT(0-t)” value [1, 10] was 10.94 ± 0.64 h, the “AUC(0-t)” value [1, 11] was 0.17287 ± 0.02918 ng·h/mL and the Cmax [1, 11] was 0.01989 ± 0.00355 ng/mL. For the same compound, the “MRT(0-t)” value [1, 11] was 12.22 ± 2.29 h.

`O[C@H]1[C@H](O)[C@@H](O)[C@H](O)[C@@H](O)[C@H]1O` [Inositol] showed an AUC(0-t) [1, 4] of 0.32 ± 0.0658 ng·h/mL, an AUC(0-t) [1, 5] of 0.0615 ± 0.0127 ng·h/mL and a Cmax [1, 6] of 0.0582 ± 0.0147 ng/mL. For the same compound, the Cmax [1, 7] was 0.0239 ± 0.00194 ng/mL, the MRT last [1, 8] was 2.81 ± 0.27 h and the MRT last [1, 9] was 11.2 ± 1.23 h.

`C[C@@H]1O[C@@H](O[C@@H]2[C@@H](O)[C@H](OCCc3ccc(O)c(O)c3)O[C@H](COC(=O)/C=C/c3ccc(O)c(O)c3)[C@H]2O)[C@H](O)[C@H](O)[C@H]1O` [Isoacteoside] gave an AUC(0-t) [1, 4] of 2.8 ± 0.138 ng·h/mL, an AUC(0-t) [1, 5] of 2.18 ± 0.31 ng·h/mL and a Cmax [1, 6] of 0.248 ± 0.0148 ng/mL. For the same compound, the Cmax [1, 7] was 0.185 ± 0.00514 ng/mL, the MRT last [1, 8] was 7.9 ± 0.47 h and the MRT last [1, 9] was 8.87 ± 0.83 h. The “pharmacokinetics in MPTP + BYQZF group compared with BYQZF without MPTP group” value ([1]; oral BYQZF 5 g crude drug/kg) was “significantly different”.

In the case of `N[C@@H](CCC(=O)O)C(=O)O` [L-Glutamic acid], the Cmax ([1]; male, C57BL/6J, mouse, in vivo, po, 5 g/kg) is reported as 0.0514 ± 0.00766 ng/mL, the Cmax ([1]; male, C57BL/6J, mouse, plasma, po, 5 g/kg) is reported as 0.0146 ± 0.00047 ng/mL and the AUC(0-t) [1, 4] is reported as 0.102 ± 0.0119 ng·h/mL. The AUC(0-t) [1, 5] was 0.0832 ± 0.0112 ng·h/mL, the MRT last [1, 8] was 4.47 ± 1.61 h and the MRT last [1, 9] was 4.55 ± 1.19 h.

For `N[C@@H](CC(=O)N[C@@H](CC(=O)O)C(=O)O)C(=O)O` [L-beta-aspartyl-L-aspartic acid], the “pharmacokinetics in MPTP + BYQZF group compared with BYQZF without MPTP group” value ([1]; oral BYQZF 5 g crude drug/kg) was “significantly different”, the “AUC(0-t)” value [1, 10] was 0.01864 ± 0.00096 ng·h/mL and the Cmax [1, 10] was 0.02274 ± 0.00024 ng/mL. The “MRT(0-t)” value [1, 10] was 2.02 ± 2.07 h, the “AUC(0-t)” value [1, 11] was 0.01424 ± 0.0026 ng·h/mL and the Cmax [1, 11] was 0.00887 ± 0.00191 ng/mL. For the same compound, the “MRT(0-t)” value [1, 11] was 2.13 ± 1.32 h.

In the case of `C[n+]1ccc(-c2ccccc2)cc1` [MPP^+, 1‐Methyl‐4‐phenylpyridinium], the “proportion of apoptotic cells” value (SH-SY5Y cells) is reported as 7.95%.

In the case of `O=c1c2cc(O)c(O)cc2oc2cc(O)c([C@@H]3O[C@H](CO)[C@@H](O)[C@H](O)[C@H]3O)c(O)c12` [Mangiferol], the “pharmacokinetics in MPTP + BYQZF group compared with BYQZF without MPTP group” value [2] is reported as “significantly different”.

In the case of `OCC1=C[C@@H](O)[C@]2(O[C@@H]3O[C@H](CO)[C@@H](O)[C@H](O)[C@H]3O[C@@H]3O[C@H](CO)[C@@H](O)[C@H](O)[C@H]3O)C=CO[C@@H](O[C@@H]3O[C@H](CO)[C@@H](O)[C@H](O)[C@H]3O)[C@H]12` [Rehmannioside D], the “spontaneous oxidation of endogenous dopamine” value [3] is given as “inhibit”.

`O=c1cc[nH]c(=O)[nH]1` [Uracil] showed an AUC(0-t) [1, 4] of 0.413 ± 0.0753 ng·h/mL, an AUC(0-t) [1, 5] of 0.166 ± 0.0638 ng·h/mL and a Cmax [1, 6] of 0.23 ± 0.0219 ng/mL. It also gave a Cmax [1, 7] of 0.0395 ± 0.00762 ng/mL, an MRT last [1, 8] of 2.01 ± 1.68 h and an MRT last [1, 9] of 2.89 ± 0.17 h.

With Manninotriose the “pharmacokinetics in MPTP + BYQZF group compared with BYQZF without MPTP group” value [2] was “significantly different”.

Source: article PMC12686966, “Da‐Bu‐Yin‐Wan and Qian‐Zheng‐San Alleviate Parkinson's Disease by Activating the Keap1/Nrf2/HO‐1 Pathway to Positively Regulate Oxidative Stress” (CNS Neuroscience & Therapeutics, 2025)
